Data from patent publication US9315815B2, “Method of high-throughput sorting of high expression cell and cells sorted therefrom” (Taipei Medical University, priority 2013, dated 2016).

Experiments:
[1] = molecular target: T1, furin protease (Cricetulus griseus, UniProt A0A9J7CGZ7); assay: FACS detection of PCD-GB-RAKR-mB7 on LEC1/PCD-GB cell membrane with furin inhibitor; type: cell-based, Chinese Hamster; details: LEC1/PCD-GB cells, furin inhibitor added, anti-myc antibody, FACS (FIG. 6B)
T1 construct: rich furin protease in Golgi can effectively cleave furin cleavage site; endogenous in cells; host or cells: LEC1/PCD-GB (CHO Lec1) cells
T1 sequence (A0A9J7CGZ7 27-794): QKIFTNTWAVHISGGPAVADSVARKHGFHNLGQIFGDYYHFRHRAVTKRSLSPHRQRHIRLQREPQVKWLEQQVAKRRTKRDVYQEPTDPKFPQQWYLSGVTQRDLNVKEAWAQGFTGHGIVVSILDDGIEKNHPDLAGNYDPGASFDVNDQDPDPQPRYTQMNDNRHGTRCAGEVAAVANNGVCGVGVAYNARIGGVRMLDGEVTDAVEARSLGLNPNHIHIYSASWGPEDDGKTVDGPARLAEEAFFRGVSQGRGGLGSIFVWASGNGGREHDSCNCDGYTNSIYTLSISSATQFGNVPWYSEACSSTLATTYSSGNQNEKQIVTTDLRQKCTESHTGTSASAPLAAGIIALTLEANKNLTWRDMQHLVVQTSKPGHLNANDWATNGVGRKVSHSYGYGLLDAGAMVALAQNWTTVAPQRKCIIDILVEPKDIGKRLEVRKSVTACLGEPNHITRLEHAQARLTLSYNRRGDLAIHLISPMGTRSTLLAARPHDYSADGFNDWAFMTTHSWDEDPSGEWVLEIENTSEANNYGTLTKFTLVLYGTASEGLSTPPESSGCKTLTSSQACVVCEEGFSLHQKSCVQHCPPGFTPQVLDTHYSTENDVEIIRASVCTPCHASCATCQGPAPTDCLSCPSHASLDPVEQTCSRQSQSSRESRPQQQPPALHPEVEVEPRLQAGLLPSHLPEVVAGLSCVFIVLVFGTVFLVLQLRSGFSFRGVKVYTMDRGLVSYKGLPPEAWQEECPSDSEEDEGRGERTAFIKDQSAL
Description: (A) To detect the expression of PCD-GB recombinant protein in LEC1 and LEC1/PCD-GB cells, Western blot technique accompanied with mouse anti-myc antibody and goat anti-mouse IgG-HRP was used. (B) Furin inhibitor (Dec-RVKR-CMK) was used to inhibit the furin activity of LEC1 and LEC1/PCD-GB cells. Then, to detect the expression of PCD-GB-RAKR-mB7 on cell membrane, FACS technology accompanied with mouse anti-myc antibody and goat anti-mouse IgG-HRP was used. The filled region represents LEC1 cells as control group; solid line represents LEC1/PCD-GB cells without furin inhibitor; dashed line represents LEC1/PCD-GB cells with furin inhibitor. (C) The X axis represents the expression of PCD-GB-RAKR-mB7 on cell membrane (mean relative fluorescence intensity). The Y axis represents the production of PCD-GB stored in lysosomes. Each dot represents a single individual LEC1/PCD-GB cell.
Example 2 exemplifies a perforin-granzyme fusion protein (PCD-GB) which is expressed in lysosome. […] The gene was transfected into mammalian cells (Chinese Hamster Ovary cells, LEC1). Under normal conditions, rich furin protease in Golgi can effectively cleave furin cleavage site ([…]) between PCD-GB and mB7 so that PCD-GB would be stored in lysosome. […]

[2] = molecular target: T2, furin protease (Homo sapiens, UniProt P09958); assay: FACS detection of anti-EGFR Ab-RAKR-mB7 on 293T/anti-EGFR cell membrane with furin inhibitor; type: cell-based; details: 293T/anti-EGFR cells, furin inhibitor added, FITC anti-human IgG, FACS (FIG. 2B)
T2 construct: rich furin protease in Golgi can effectively cleave a furin cleavage site; endogenous in cells; host or cells: 293T/anti-EGFR (HEK-293 derived) cells
T2 sequence (P09958 108-794): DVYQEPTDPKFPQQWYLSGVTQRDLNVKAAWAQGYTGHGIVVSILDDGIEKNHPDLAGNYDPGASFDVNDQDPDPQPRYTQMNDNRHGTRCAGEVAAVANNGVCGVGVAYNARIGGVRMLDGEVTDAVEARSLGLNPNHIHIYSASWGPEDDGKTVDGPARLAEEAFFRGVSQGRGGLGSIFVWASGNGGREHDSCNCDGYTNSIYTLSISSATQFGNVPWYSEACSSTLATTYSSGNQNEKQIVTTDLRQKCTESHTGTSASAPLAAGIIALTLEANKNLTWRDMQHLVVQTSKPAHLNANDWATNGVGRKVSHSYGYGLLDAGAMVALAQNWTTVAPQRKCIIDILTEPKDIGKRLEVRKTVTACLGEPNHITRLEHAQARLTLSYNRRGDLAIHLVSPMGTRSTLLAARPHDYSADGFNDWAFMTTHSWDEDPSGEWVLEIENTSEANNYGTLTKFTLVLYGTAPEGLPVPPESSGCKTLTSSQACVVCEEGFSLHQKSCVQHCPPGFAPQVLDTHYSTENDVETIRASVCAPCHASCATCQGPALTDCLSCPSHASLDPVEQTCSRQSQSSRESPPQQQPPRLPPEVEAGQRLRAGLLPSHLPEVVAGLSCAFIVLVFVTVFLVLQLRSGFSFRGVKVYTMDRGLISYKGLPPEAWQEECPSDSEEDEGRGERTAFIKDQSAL
Description: (§1) (A) To detect the concentration of anti-EGFR antibody of 293T/anti-EGFR cell culture, Dec-RVKR-CMK was used as furin inhibitor. The Y axis represents concentration of the secreted anti-EGFR antibody, while the X axis represents cell groups. […] (B) To detect anti-EGFR Ab-RAKR-mB7 expression of 293T/anti-EGFR on cell membrane, FACS technology combined with FITC conjugated anti-human IgG antibody was used. The filled region represents 293T cells as control group; the solid line represents 293T/anti-EGFR cell without furin inhibitor; the dashed line represents 293T/anti-EGFR cell with furin inhibitor.
The gene was transfected into mammalian cells (human embryonic kidney cells, HEK-293). Under normal conditions, rich furin protease in Golgi can effectively cleave a furin cleavage site ([…]) between anti-EGFR antibody and mB7 to allow secretion of the anti-EGFR antibody into an extracellular matrix. When furin inhibitor (DEC-RVKR-CMK) was added, to inhibit the activity of the furin protease, the anti-EGFR Ab-RAKR-mB7 would not be cleaved by furin protease and would be stably anchored on the cell membrane surface. Then, FITC-conjugated anti-human antibody was used to label the anti-EGFR Ab-RAKR-mB7 on the cell membranes. By using FACS, the cells with high expression of anti-EGFR Ab-RAKR-mB7 on their cell membranes can be rapidly and high-throughput sorted. […]

[3] = molecular target: T2, furin protease; assay: Secretion of anti-EGFR antibody by 293T/anti-EGFR cells with furin inhibitor; type: cell-based; details: furin inhibitor added vs absent (FIG. 2A)
Description: as §1
Take a humanized anti-EGFR antibody, for example; we transfected an anti-EGFR Ab-RAKR-mB7 gene into a human embryonic kidney cell with a Lentivirus vector to construct a 293T/anti-EGFR cell line. In the absence of a furin inhibitor (Dec-RVKR-CMK), said 293T/anti-EGFR can continuously secrete anti-EGFR antibody into extracellular matrix (see FIG. 2A).

Dec-RVKR-CMK
PCD-GB-RAKR-mB7 detected on cell membrane [1]: few PCD-GB-RAKR-mB7 would be detected on the LEC1/PCD-GB cell membrane
expression of anti-EGFR Ab-RAKR-mB7 on cell membrane [2]: expression of anti-EGFR Ab-RAKR-mB7 was on the cell membrane
secretion of anti-EGFR antibody [3]: decreased secretion of anti-EGFR antibody
